From PMC10209615, “Pharmacological inhibition of LSD1 suppresses growth of hepatocellular carcinoma by inducing GADD45B” (MedComm, 2023)

Legend:
Axl = biological target: T1, Axl (Homo sapiens, UniProt P30530); assay: Kinase activity detection (Eurofins); format: biochemical; settings: ZY0511 1 µM, read-out: Activation rate
T1 construct: purchased Eurofins Pharma Discovery Services (KinaseProfiler)
Experimental: (§1) The activity of ZY0511 against 104 cancer‐related kinases was carried out by Eurofins Pharma Discovery Services (Celle Lévescault, France).

PI3 Kinase (p120γ) = biological target: T2, PI3 Kinase (p120γ) (Homo sapiens, UniProt P48736); assay: Kinase activity detection (Eurofins); format: biochemical; settings: ZY0511 1 µM, read-out: Inhibition rate
T2 construct: purchased Eurofins Pharma Discovery Services (KinaseProfiler)
Experimental: as §1

PKCε = biological target: T3, PKCε (Homo sapiens, UniProt Q02156); assay: Kinase activity detection (Eurofins); format: biochemical; settings: ZY0511 1 µM, read-out: Inhibition rate
T3 construct: purchased Eurofins Pharma Discovery Services (KinaseProfiler)
Experimental: as §1

PKCθ = biological target: T4, PKCθ (Homo sapiens, UniProt Q04759); assay: Kinase activity detection (Eurofins); format: biochemical; settings: ZY0511 1 µM, read-out: Inhibition rate
T4 construct: purchased Eurofins Pharma Discovery Services
Experimental: as §1

EphA7 = biological target: T5, EphA7 (Rattus norvegicus, UniProt P54759); assay: Kinase activity detection (Eurofins); format: biochemical; settings: ZY0511 1 µM, read-out: Inhibition rate
T5 construct: purchased Eurofins Pharma Discovery Services
Experimental: as §1

MELK = biological target: T6, MELK (Homo sapiens, UniProt Q14680); assay: Kinase activity detection (Eurofins); format: biochemical; settings: ZY0511 1 µM, read-out: Inhibition rate
T6 construct: purchased Eurofins Pharma Discovery Services
Experimental: as §1

Flt1 = biological target: T7, Flt1 (Homo sapiens, UniProt P17948); assay: Kinase activity detection (Eurofins); format: biochemical; settings: ZY0511 1 µM, read-out: Inhibition rate
T7 construct: purchased Eurofins Pharma Discovery Services (KinaseProfiler)
Experimental: as §1

Fms = biological target: T8, Fms (Homo sapiens, UniProt P07333); assay: Kinase activity detection (Eurofins); format: biochemical; settings: ZY0511 1 µM, read-out: Inhibition rate
T8 construct: purchased Eurofins Pharma Discovery Services (KinaseProfiler)
Experimental: as §1

MAPK2 = biological target: T9, MAPK2 (Homo sapiens, UniProt P28482); assay: Kinase activity detection (Eurofins); format: biochemical; settings: ZY0511 1 µM, read-out: Activation rate
T9 construct: purchased Eurofins Pharma Discovery Services (KinaseProfiler)
Experimental: as §1

Flt3 (D835Y) = biological target: T10, Flt3 (D835Y) (Homo sapiens, UniProt P36888, D835Y); assay: Kinase activity detection (Eurofins); format: biochemical; settings: ZY0511 1 µM, read-out: Inhibition rate
T10 construct: purchased Eurofins Pharma Discovery Services
Experimental: as §1

cKit = biological target: T11, cKit (Homo sapiens, UniProt P10721); assay: Kinase activity detection (Eurofins); format: biochemical; settings: ZY0511 1 µM, read-out: Activation rate
T11 construct: purchased Eurofins Pharma Discovery Services (KinaseProfiler)
Experimental: as §1

EphA2 = biological target: T12, EphA2 (Homo sapiens, UniProt P29317); assay: Kinase activity detection (Eurofins); format: biochemical; settings: ZY0511 1 µM, read-out: Activation rate
T12 construct: purchased Eurofins Pharma Discovery Services (KinaseProfiler)
Experimental: as §1

PKCα = biological target: T13, PKCα (Homo sapiens, UniProt P17252); assay: Kinase activity detection (Eurofins); format: biochemical; settings: ZY0511 1 µM, read-out: Activation rate
T13 construct: purchased Eurofins Pharma Discovery Services (KinaseProfiler)
Experimental: as §1

PDK1 = biological target: T14, PDK1 (Homo sapiens, UniProt O15530); assay: Kinase activity detection (Eurofins); format: biochemical; settings: ZY0511 1 µM, read-out: Inhibition rate
T14 construct: purchased Eurofins Pharma Discovery Services (KinaseProfiler)
Experimental: as §1

DCAMKL3 = biological target: T15, DCAMKL3 (Homo sapiens, UniProt Q9C098); assay: Kinase activity detection (Eurofins); format: biochemical; settings: ZY0511 1 µM, read-out: Inhibition rate
T15 construct: purchased Eurofins Pharma Discovery Services
Experimental: as §1

Blk = biological target: T16, Blk (Homo sapiens, UniProt P51451); assay: Kinase activity detection (Eurofins); format: biochemical; settings: ZY0511 1 µM, read-out: Inhibition rate
T16 construct: purchased Eurofins Pharma Discovery Services (KinaseProfiler)
Experimental: as §1

ZIPK = biological target: T17, ZIPK (Homo sapiens, UniProt O43293); assay: Kinase activity detection (Eurofins); format: biochemical; settings: ZY0511 1 µM, read-out: Inhibition rate
T17 construct: purchased Eurofins Pharma Discovery Services (KinaseProfiler)
Experimental: as §1

MST3 = biological target: T18, MST3 (Homo sapiens, UniProt Q9Y6E0); assay: Kinase activity detection (Eurofins); format: biochemical; settings: ZY0511 1 µM, read-out: Inhibition rate
T18 construct: purchased Eurofins Pharma Discovery Services (KinaseProfiler)
Experimental: as §1

Ron = biological target: T19, Ron (Homo sapiens, UniProt Q04912); assay: Kinase activity detection (Eurofins); format: biochemical; settings: ZY0511 1 µM, read-out: Activation rate
T19 construct: purchased Eurofins Pharma Discovery Services (KinaseProfiler)
Experimental: as §1

PDGFRα (D842V) = biological target: T20, PDGFRα (D842V) (Homo sapiens, UniProt P16234, D842V); assay: Kinase activity detection (Eurofins); format: biochemical; settings: ZY0511 1 µM, read-out: Activation rate
T20 construct: purchased Eurofins Pharma Discovery Services (KinaseProfiler)
Experimental: as §1

[1] = biological target: T21, PI3 Kinase (p110α (E545K)/p85α) (Homo sapiens, UniProt P42336, E545K); assay: Kinase activity detection (Eurofins); format: biochemical; settings: ZY0511 1 µM, read-out: Inhibition rate
T21 construct: purchased Eurofins Pharma Discovery Services (KinaseProfiler)
Experimental: as §1

BRK = biological target: T22, BRK (Homo sapiens, UniProt Q13882); assay: Kinase activity detection (Eurofins); format: biochemical; settings: ZY0511 1 µM, read-out: Inhibition rate
T22 construct: purchased Eurofins Pharma Discovery Services (KinaseProfiler)
Experimental: as §1

EGFR (L858R) = biological target: T23, EGFR (L858R) (Homo sapiens, UniProt P00533, L858R); assay: Kinase activity detection (Eurofins); format: biochemical; settings: ZY0511 1 µM, read-out: Inhibition rate
T23 construct: purchased Eurofins Pharma Discovery Services (KinaseProfiler)
Experimental: as §1

PI3 Kinase (p110βγ/p85α) = biological target: T24, PI3 Kinase (p110βγ/p85α) (Homo sapiens, UniProt P42338); assay: Kinase activity detection (Eurofins); format: biochemical; settings: ZY0511 1 µM, read-out: Inhibition rate
T24 construct: purchased Eurofins Pharma Discovery Services (KinaseProfiler)
Experimental: as §1

ALK = biological target: T25, ALK (Homo sapiens, UniProt Q9UM73); assay: Kinase activity detection (Eurofins); format: biochemical; settings: ZY0511 1 µM, read-out: Activation rate
T25 construct: purchased Eurofins Pharma Discovery Services (KinaseProfiler)
Experimental: as §1

ATM = biological target: T26, ATM (Homo sapiens, UniProt Q13315); assay: Kinase activity detection (Eurofins); format: biochemical
T26 construct: purchased Eurofins Pharma Discovery Services
Experimental: as §1

ErbB4 = biological target: T27, ErbB4 (Homo sapiens, UniProt Q15303); assay: Kinase activity detection (Eurofins); format: biochemical; settings: ZY0511 1 µM, read-out: Activation rate
T27 construct: purchased Eurofins Pharma Discovery Services (KinaseProfiler)
Experimental: as §1

CDK1/CyclinB = biological target: T28, CDK1/CyclinB (Homo sapiens, UniProt P06493); assay: Kinase activity detection (Eurofins); format: biochemical; settings: ZY0511 1 µM, read-out: Activation rate
T28 construct: purchased Eurofins Pharma Discovery Services (KinaseProfiler)
Experimental: as §1

HIPK3 = biological target: T29, HIPK3 (Homo sapiens, UniProt Q9H422); assay: Kinase activity detection (Eurofins); format: biochemical; settings: ZY0511 1 µM, read-out: Inhibition rate
T29 construct: purchased Eurofins Pharma Discovery Services (KinaseProfiler)
Experimental: as §1

CHK1 = biological target: T30, CHK1 (Homo sapiens, UniProt O14757); assay: Kinase activity detection (Eurofins); format: biochemical; settings: ZY0511 1 µM
T30 construct: purchased Eurofins Pharma Discovery Services (KinaseProfiler)
Experimental: as §1

Mer = biological target: T31, Mer (Homo sapiens, UniProt Q12866); assay: Kinase activity detection (Eurofins); format: biochemical; settings: ZY0511 1 µM, read-out: Activation rate
T31 construct: purchased Eurofins Pharma Discovery Services (KinaseProfiler)
Experimental: as §1

HepG2 = assay: MTT assay, ZY0511 and DTP3; format: cell-based; settings: Homo sapiens, HepG2, 96 h, read-out: Inhibition rate
Experimental: (§2) Cell viability was determined using Cell Counting Kit‐8 (CCK8; Dojindo) or 3‐(4, 5‐dimethylthiazol‐2‐yl)‐2,5‐diphenyltetrazoliumbromide (MTT, Sigma Aldrich) assay. A selection of HCC cells was exposed to gradient concentration of ZY0511 for 96–144 h, or exposed to other LSD1 inhibitors including SP2509, GSK2879552, and ORY1001 for 144 h, or exposed to DTP3, which enhanced the apoptosis induction function of GADD45B for 96 h in combination therapy. Consequently, cell viability was determined using a microplate reader (Thermo Fisher) at 450 nm for CCK8 assay, or 570 nm for MTT assay, at different time points. The IC50 values and CI values were analyzed and calculated using GraphPad Prism 8 and CompuSyn (version 1.0; http://www.combosyn.com), respectively.

Hep3B = assay: MTT assay, ZY0511 and DTP3; format: cell-based; settings: Homo sapiens, 96 h, read-out: Inhibition rate
Experimental: as §2

T30 sequence (O14757 whole entry): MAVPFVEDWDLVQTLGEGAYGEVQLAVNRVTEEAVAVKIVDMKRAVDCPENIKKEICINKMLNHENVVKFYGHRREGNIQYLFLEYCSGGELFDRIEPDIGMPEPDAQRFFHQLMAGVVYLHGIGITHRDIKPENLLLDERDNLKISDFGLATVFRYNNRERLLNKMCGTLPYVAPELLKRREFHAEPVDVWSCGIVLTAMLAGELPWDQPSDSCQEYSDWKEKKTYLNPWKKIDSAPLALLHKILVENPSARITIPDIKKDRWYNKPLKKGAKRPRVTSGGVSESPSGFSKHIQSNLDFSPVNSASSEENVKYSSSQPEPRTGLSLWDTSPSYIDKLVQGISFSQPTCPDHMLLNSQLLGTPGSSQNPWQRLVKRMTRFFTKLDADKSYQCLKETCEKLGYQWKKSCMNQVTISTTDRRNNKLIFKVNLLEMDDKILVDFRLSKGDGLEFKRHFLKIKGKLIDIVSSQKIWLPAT
T29 sequence (Q9H422 whole entry): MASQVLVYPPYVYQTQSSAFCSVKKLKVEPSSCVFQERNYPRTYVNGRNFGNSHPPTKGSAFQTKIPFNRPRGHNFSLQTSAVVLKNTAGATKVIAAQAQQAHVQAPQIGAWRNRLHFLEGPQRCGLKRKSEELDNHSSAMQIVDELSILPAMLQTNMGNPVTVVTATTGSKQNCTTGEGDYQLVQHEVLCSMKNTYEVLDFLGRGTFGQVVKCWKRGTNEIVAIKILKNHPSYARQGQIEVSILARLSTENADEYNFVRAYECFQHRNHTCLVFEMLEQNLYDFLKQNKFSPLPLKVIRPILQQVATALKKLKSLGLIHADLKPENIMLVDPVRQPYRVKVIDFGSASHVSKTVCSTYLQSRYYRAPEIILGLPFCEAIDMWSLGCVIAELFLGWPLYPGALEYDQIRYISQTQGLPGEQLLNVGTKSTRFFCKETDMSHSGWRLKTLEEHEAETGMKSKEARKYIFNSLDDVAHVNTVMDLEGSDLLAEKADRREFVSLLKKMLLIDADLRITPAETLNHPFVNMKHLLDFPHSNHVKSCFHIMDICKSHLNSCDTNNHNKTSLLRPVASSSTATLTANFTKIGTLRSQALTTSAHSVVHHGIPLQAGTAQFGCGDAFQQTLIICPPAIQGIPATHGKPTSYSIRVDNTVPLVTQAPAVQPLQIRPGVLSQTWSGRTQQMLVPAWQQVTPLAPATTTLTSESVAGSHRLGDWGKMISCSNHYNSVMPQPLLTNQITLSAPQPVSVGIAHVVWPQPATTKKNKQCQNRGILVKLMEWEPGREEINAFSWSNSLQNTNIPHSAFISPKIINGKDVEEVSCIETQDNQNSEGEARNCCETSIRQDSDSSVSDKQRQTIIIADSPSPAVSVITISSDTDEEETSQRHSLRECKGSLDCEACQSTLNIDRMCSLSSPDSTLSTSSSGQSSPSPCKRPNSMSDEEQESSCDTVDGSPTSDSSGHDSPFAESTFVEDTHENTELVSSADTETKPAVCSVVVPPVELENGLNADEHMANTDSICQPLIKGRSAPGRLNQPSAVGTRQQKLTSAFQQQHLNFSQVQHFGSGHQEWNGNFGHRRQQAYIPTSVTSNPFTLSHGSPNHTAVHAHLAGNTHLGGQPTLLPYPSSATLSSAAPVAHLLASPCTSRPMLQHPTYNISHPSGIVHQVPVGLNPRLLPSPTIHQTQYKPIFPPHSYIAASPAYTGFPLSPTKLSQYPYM
T16 sequence (P51451 whole entry): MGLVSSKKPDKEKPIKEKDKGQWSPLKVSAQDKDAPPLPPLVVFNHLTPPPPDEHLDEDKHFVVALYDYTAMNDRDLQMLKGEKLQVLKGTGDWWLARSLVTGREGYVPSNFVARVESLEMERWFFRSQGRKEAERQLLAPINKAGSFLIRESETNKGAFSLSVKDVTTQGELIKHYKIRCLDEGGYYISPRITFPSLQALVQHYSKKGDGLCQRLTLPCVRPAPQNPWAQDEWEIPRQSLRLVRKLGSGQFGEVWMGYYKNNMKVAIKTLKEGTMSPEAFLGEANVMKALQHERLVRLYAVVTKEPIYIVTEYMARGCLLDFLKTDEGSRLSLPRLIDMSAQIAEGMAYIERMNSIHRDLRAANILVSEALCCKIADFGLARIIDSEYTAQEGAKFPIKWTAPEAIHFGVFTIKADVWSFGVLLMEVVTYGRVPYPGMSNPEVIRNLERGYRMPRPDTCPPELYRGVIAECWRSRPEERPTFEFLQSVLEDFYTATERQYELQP
T17 sequence (O43293 whole entry): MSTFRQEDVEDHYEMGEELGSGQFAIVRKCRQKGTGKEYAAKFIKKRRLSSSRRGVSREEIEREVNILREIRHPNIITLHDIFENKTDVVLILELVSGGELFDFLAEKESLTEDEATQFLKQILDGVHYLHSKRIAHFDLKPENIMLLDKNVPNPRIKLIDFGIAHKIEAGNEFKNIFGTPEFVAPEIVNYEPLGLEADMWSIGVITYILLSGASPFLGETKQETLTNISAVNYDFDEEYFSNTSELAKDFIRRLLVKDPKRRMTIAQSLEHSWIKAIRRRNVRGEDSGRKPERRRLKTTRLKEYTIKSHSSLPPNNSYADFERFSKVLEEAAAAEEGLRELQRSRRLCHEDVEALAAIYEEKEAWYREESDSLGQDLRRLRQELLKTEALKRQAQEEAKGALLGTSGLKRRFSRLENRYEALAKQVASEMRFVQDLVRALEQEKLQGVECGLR
T25 sequence (Q9UM73 19-1620): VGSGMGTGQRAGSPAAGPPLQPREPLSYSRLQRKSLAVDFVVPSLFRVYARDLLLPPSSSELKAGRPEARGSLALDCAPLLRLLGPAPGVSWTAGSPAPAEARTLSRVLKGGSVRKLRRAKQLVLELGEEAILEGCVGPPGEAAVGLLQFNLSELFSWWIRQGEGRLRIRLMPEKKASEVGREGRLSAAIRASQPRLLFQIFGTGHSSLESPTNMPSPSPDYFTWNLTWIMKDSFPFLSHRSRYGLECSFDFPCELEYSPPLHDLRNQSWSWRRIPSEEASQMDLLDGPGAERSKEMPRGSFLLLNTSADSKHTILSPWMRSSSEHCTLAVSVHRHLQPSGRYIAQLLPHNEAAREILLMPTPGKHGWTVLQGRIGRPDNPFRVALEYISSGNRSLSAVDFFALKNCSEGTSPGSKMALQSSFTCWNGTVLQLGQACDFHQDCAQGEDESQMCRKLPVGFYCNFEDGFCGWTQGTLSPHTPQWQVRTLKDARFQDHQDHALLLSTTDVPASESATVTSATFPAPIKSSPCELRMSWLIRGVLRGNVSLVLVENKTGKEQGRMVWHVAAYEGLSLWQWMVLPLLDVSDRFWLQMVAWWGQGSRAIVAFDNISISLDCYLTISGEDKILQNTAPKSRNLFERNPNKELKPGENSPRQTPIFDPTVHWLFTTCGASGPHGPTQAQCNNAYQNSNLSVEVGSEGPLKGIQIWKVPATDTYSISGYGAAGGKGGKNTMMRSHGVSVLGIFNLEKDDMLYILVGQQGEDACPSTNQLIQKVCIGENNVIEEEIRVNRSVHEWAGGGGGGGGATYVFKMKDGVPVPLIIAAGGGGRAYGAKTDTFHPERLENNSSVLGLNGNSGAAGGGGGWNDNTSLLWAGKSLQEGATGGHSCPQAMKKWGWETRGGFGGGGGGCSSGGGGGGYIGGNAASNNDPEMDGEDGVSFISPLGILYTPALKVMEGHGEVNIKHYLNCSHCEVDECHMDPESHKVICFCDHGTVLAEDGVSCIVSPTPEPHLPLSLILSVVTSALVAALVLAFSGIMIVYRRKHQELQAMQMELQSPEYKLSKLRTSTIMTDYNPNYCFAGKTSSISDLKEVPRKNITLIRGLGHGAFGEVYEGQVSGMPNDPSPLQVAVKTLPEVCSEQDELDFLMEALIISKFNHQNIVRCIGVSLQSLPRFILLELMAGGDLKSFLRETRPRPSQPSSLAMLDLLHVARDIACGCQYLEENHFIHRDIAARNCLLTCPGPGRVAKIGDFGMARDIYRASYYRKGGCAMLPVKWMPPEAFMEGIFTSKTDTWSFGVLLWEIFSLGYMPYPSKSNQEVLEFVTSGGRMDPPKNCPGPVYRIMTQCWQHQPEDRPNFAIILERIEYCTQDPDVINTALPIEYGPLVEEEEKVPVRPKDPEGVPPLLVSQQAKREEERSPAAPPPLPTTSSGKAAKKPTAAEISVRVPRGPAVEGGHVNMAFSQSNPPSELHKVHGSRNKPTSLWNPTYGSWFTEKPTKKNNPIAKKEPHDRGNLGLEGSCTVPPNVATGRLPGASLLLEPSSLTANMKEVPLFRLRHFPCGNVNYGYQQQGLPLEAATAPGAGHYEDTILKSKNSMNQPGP

O=C(N/N=C1\CCc2c(Cl)ccc(O)c21)c1cccc(S(=O)(=O)N2CCOCC2)c1 [ZY0511, (E)‐N'‐(2, 3‐dihydro‐1H‐inden‐1‐ylidene) benzohydrazides]
blood routine indexes (red blood cell, white blood cell, lymph cell) (Acute toxicity assay; 400 mg/kg i.p., day 14): did not change | liver and kidney function indexes (ALT, AST, creatinine) (Acute toxicity assay; 400 mg/kg i.p., day 14): did not change | pathology of main organs (heart, liver, spleen, lung, kidney) (Acute toxicity assay; 400 mg/kg i.p., day 14, H&E): No pathological abnormality | no observed adverse effect level (Acute toxicity assay; mice, i.p.): 400 mg/kg | activation at 1 µM (Axl): 3% | inhibition at 1 µM (PI3 Kinase (p120γ)): 10% | inhibition at 1 µM (PKCε): 8% | inhibition at 1 µM (PKCθ): 3% | inhibition at 1 µM (EphA7): 2% | inhibition at 1 µM (MELK): 1% | inhibition at 1 µM (Flt1): 20% | inhibition at 1 µM (Fms): 7% | activation at 1 µM (MAPK2): 16% | inhibition at 1 µM (Flt3 (D835Y)): 11% | activation at 1 µM (cKit): 14% | activation at 1 µM (EphA2): 5% | activation at 1 µM (PKCα): 4% | inhibition at 1 µM (PDK1): 8% | inhibition at 1 µM (DCAMKL3): 3% | inhibition at 1 µM (Blk): 29% | inhibition at 1 µM (ZIPK): 6% | inhibition at 1 µM (MST3): 35% | activation at 1 µM (Ron): 7% | activation at 1 µM (PDGFRα (D842V)): 2% | inhibition at 1 µM [1]: 15% | inhibition at 1 µM (BRK): 4% | inhibition at 1 µM (EGFR (L858R)): 8% | inhibition at 1 µM (PI3 Kinase (p110βγ/p85α)): 8% | activation at 1 µM (ALK): 23% | IC50 (ATM): 9.8 µM | activation at 1 µM (ErbB4): 10% | activation at 1 µM (CDK1/CyclinB): 3% | inhibition at 1 µM (HIPK3): 6% | Activation rate (CHK1): 1% | activation at 1 µM (Mer): 2% | inhibition at 0.25 µM (HepG2): 47% | inhibition at 0.5 µM (HepG2): 65% | inhibition at 1 µM (HepG2): 79% | inhibition at 2 µM (HepG2): 80% | inhibition at 0.25 µM (Hep3B): 31% | inhibition at 0.5 µM (Hep3B): 42% | inhibition at 1 µM (Hep3B): 49% | inhibition at 2 µM (Hep3B): 61%
